Where two headings read alike, the source gives them in different places.
Target: human sodium ion channel 1.7 (hNav1.7) (Homo sapiens, UniProt Q15858)
Test: Blocking effect against sodium ion channel Nav1.7, IonFlux16 auto patch clamp in hNav1.7 HEK293 cells
Assay type: cell-based
[1] = hNav1.7 HEK293 cells, inhibition of peak current after 50 seconds treatment, eight concentrations, read-out: IC50

Chain of human sodium ion channel 1.7 (hNav1.7) (Q15858 whole entry): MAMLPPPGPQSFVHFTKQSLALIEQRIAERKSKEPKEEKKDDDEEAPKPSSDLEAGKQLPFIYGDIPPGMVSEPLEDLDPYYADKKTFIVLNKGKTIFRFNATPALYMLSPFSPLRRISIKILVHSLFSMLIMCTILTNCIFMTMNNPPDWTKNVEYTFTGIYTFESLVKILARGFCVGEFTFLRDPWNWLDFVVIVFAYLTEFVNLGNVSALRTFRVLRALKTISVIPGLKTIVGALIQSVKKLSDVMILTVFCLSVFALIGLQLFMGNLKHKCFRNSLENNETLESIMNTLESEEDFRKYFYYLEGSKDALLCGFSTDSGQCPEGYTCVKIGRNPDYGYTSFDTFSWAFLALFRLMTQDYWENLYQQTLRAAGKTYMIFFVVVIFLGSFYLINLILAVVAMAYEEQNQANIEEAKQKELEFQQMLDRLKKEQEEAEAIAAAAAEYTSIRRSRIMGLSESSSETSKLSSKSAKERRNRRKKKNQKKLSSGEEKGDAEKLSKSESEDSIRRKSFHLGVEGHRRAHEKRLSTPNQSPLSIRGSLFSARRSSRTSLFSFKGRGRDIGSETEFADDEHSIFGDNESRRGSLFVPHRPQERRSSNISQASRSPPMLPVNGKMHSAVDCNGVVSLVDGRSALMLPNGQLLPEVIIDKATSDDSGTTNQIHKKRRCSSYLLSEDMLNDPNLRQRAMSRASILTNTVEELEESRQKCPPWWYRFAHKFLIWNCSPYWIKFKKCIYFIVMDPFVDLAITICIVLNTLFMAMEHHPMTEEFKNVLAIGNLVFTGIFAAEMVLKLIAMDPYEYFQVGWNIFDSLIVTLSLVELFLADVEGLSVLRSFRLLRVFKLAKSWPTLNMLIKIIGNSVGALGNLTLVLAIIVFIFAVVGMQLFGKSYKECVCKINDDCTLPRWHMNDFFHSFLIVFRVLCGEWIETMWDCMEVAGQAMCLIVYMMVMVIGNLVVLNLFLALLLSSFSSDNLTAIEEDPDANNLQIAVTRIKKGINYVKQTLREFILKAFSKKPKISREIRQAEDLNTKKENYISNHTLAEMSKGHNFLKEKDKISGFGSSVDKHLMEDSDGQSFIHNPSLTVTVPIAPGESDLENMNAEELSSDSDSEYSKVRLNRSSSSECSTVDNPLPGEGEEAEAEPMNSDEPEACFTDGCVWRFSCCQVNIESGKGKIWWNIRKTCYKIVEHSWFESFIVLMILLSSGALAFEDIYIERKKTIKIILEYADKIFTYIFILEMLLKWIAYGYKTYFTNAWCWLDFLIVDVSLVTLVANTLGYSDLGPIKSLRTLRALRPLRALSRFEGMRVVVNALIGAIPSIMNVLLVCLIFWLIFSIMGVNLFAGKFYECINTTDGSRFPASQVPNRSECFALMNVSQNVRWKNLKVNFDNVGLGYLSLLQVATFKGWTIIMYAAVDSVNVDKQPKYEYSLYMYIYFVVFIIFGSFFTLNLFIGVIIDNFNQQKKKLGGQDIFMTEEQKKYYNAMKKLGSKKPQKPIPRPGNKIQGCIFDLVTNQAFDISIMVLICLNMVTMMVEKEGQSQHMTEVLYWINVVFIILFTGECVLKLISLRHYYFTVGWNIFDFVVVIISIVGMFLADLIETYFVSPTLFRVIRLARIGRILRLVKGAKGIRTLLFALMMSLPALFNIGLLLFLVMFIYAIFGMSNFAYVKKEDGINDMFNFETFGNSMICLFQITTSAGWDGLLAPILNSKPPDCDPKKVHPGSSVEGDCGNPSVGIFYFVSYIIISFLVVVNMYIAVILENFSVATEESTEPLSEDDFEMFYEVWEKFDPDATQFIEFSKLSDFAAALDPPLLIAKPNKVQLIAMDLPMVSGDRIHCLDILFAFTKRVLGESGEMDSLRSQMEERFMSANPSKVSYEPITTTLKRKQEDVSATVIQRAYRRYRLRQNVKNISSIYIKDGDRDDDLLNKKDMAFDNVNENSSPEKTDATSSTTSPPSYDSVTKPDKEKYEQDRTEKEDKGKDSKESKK

| Structure (SMILES) | IC50 [1] [nM] | IC50 [nM] |
| --- | --- | --- |
| CS(=O)(=O)NC(=O)c1cc(Cl)c(-n2nc(Cl)c3cc(-c4cncc(Cl)c4)ccc32)cc1F [Example 242, 5-chloro-4-(3-chloro-5-(5-chloropyridin-3-yl)-1H-indazol-1-yl)-2-fluoro-N-(methylsulfonyl)benzamide] | 809 | – |
| CS(=O)(=O)NC(=O)c1cc(Cl)c(-n2cc(-c3ccc(F)cc3)c3cc(F)cnc32)cc1F [Example 206, 5-chloro-2-fluoro-4-(5-fluoro-3-(4-fluorophenyl)-1H-pyrrolo[2,3-b]pyridin-1-yl)-N-(methylsulfonyl)benzamide] | 210 | – |
| CS(=O)(=O)NC(=O)c1ccc(-n2nc(-c3cccnc3)c3cc(F)ccc32)c(C#N)c1 [Example 167, 3-cyano-4-(5-fluoro-3-(pyridin-3-yl)-1H-indazol-1-yl)-N-(methylsulfonyl)benzamide] | > 10000 | – |
| CS(=O)(=O)NC(=O)c1cc(Cl)c(-n2nc(-c3cccnc3)c3ccccc32)cc1F [Example 180, 5-chloro-2-fluoro-N-(methylsulfonyl)-4-(3-(pyridin-3-yl)-1H-indazol-1-yl)benzamide] | > 10000 | – |
| CN(C)S(=O)(=O)NC(=O)c1cc(Cl)c(-n2nc(Cl)c3cc(Cl)ccc32)cc1F [Example 7, 5-chloro-4-(3,5-dichloro-1H-indazol-1-yl)-N—(N,N-dimethylsulfamoyl)-2-fluorobenzamide] | 227 | – |
| CS(=O)(=O)NC(=O)c1cc(Cl)c(-n2nc(Cl)c3cc(Oc4ccc(F)nc4)ccc32)cc1F [Example 47, 5-chloro-4-(3-chloro-5-((6-fluoropyridin-3-yl)oxy)-1H-indazol-1-yl)-2-fluoro-N-(methylsulfonyl)benzamide] | 437 | – |
| CS(=O)(=O)NC(=O)c1cc(Cl)c(-n2cc(-c3cccc(Cl)c3F)c3cc(F)cnc32)cc1F [Example 211, 5-chloro-4-(3-(3-chloro-2-fluorophenyl)-5-fluoro-1H-pyrrolo[2,3-b]pyridin-1-yl)-2-fluoro-N-(methylsulfonyl)benzamide] | – | 40 |
| CS(=O)(=O)NC(=O)c1cc(Cl)c(-n2cc(-c3ccccc3C(F)(F)F)c3cccnc32)cc1F [Example 216, 5-chloro-2-fluoro-N-(methylsulfonyl)-4-(3-(2-(trifluoromethyl)phenyl)-1H-pyrrolo[2,3-b]pyridin-1-yl)benzamide] | 370 | – |
| Cn1nccc1-c1ccc2c(c1)c(Cl)nn2-c1cc(F)c(S(=O)(=O)Nc2cscn2)cc1Cl [Example 286, 5-chloro-4-(3-chloro-5-(1-methyl-1H-pyrazol-5-yl)-1H-indazol-1-yl)-2-fluoro-N-(thiazol-4-yl)benzenesulfonamide] | 3000 to 10000 | – |
| Cn1nccc1-c1nn(-c2cc(F)c(S(=O)(=O)Nc3ncns3)cc2Cl)c2ccc(Cl)cc12 [Example 283, 5-chloro-4-(5-chloro-3-(1-methyl-1H-pyrazol-5-yl)-1H-indazol-1-yl)-2-fluoro-N-(1,2,4-thiadiazol-5-yl)benzenesulfonamide] | > 3000 | – |
| CS(=O)(=O)NC(=O)c1cc(Cl)c(-n2nc(N)c3cc(Cl)ccc32)cc1F [Example 5, 4-(3-amino-5-chloro-1H-indazol-1-yl)-5-chloro-2-fluoro-N-(methylsulfonyl)benzamide] | > 10000 | – |
| COc1ccc2c(c1)c(-c1ccc(Cl)cc1F)nn2-c1cc(F)c(C(=O)NS(C)(=O)=O)cc1Cl [Example 169, 5-chloro-4-(3-(4-chloro-2-fluorophenyl)-5-methoxy-1H-indazol-1-yl)-2-fluoro-N-(methylsulfonyl)benzamide] | 180 | – |
| CS(=O)(=O)NC(=O)c1ccc(-n2nc(-c3cccc(C#N)c3)c3ccccc32)c(C#N)c1 [Example 183, 3-cyano-4-(3-(3-cyanophenyl)-1H-indazol-1-yl)-N-(methylsulfonyl)benzamide] | > 10000 | – |
| CS(=O)(=O)NC(=O)c1cc(Cl)c(-n2cc(Cl)c3cc(-c4ccc(F)cc4)cnc32)cc1F [Example 257, 5-chloro-4-(3-chloro-5-(4-fluorophenyl)-1H-pyrrolo[2,3-b]pyridin-1-yl)-2-fluoro-N-(methylsulfonyl)benzamide] | 360 | – |
| CS(=O)(=O)NC(=O)c1cc(Cl)c(-n2cc(-c3cccc(C(F)(F)F)c3)c3cccnc32)cc1F [Example 217, 5-chloro-2-fluoro-N-(methylsulfonyl)-4-(3-(3-(trifluoromethyl)phenyl)-1H-pyrrolo[2,3-b]pyridin-1-yl)benzamide] | 530 | – |
| CS(=O)(=O)NC(=O)c1cc(Cl)c(-n2nc(-c3ccc(Cl)c(F)c3)c3cc(F)ccc32)cc1F [Example 164, 5-chloro-4-(3-(4-chloro-3-fluorophenyl)-5-fluoro-1H-indazol-1-yl)-2-fluoro-N-(methylsulfonyl)benzamide] | 220 | – |
| CS(=O)(=O)NC(=O)c1cc(Cl)c(-n2nc(-c3ccc(F)c(F)c3)c3cc(Cl)ccc32)cc1F [Example 75, 5-chloro-4-(5-chloro-3-(3,4-difluorophenyl)-1H-indazol-1-yl)-2-fluoro-N-(methylsulfonyl)benzamide] | 180 | – |
| CS(=O)(=O)NC(=O)c1cc(Cl)c(-n2nc(-c3cccc(F)c3)c3ccccc32)cc1F [Example 171, 5-chloro-2-fluoro-4-(3-(3-fluorophenyl)-1H-indazol-1-yl)-N-(methylsulfonyl)benzamide] | 190 | – |
| CS(=O)(=O)NC(=O)c1cc(Cl)c(-n2nc(-c3ccccc3Cl)c3cc(F)ccc32)cc1F [Example 144, 5-chloro-4-(3-(2-chlorophenyl)-5-fluoro-1H-indazol-1-yl)-2-fluoro-N-(methylsulfonyl)benzamide] | 540 | – |
| Fc1cc(-n2nc(-c3ccc(Cl)cc3F)c3cc(Cl)ccc32)c(Cl)cc1-c1nnn[nH]1 [Example 289, 5-chloro-3-(4-chloro-2-fluorophenyl)-1-(2-chloro-5-fluoro-4-(1H-tetrazol-5-yl)phenyl)-1H-indazole] | > 10000 | – |
| CS(=O)(=O)NC(=O)c1cc(Cl)c(-n2cc(-c3ccc(Cl)nc3)c3cc(Cl)ccc32)cc1F [Example 273, 5-chloro-4-(5-chloro-3-(6-chloropyridin-3-yl)-1H-indol-1-yl)-2-fluoro-N-(methylsulfonyl)benzamide] | 180 | – |
| COc1ncccc1-c1nn(-c2cc(F)c(C(=O)NS(C)(=O)=O)cc2Cl)c2ccc(Cl)cc12 [Example 57, 5-chloro-4-(5-chloro-3-(2-methoxypyridin-3-yl)-1H-indazol-1-yl)-2-fluoro-N-(methylsulfonyl)benzamide] | 123 | – |
| Cc1cc(F)ccc1-c1cn(-c2cc(F)c(C(=O)NS(C)(=O)=O)cc2Cl)c2ncc(F)cc12 [Example 212, 5-chloro-2-fluoro-4-(5-fluoro-3-(4-fluoro-2-methylphenyl)-1H-pyrrolo[2,3-b]pyridin-1-yl)-N-(methylsulfonyl)benzamide] | 180 | – |

Continued, values first:

| IC50 [1] [nM] | IC50 [nM] | Structure (SMILES) |
| --- | --- | --- |
| 40 | – | CS(=O)(=O)NC(=O)c1cc(Cl)c(-n2nc(-c3cccc(Cl)c3)c3cc(F)ccc32)cc1F [Example 149, 5-chloro-4-(3-(3-chlorophenyl)-5-fluoro-1H-indazol-1-yl)-2-fluoro-N-(methylsulfonyl)benzamide] |
| 87 | – | CS(=O)(=O)NC(=O)c1cc(Cl)c(-n2nc(Cl)c3cc(OCc4ccc(F)cc4)ccc32)cc1F [Example 36, 5-chloro-4-(3-chloro-5-((4-fluorobenzyl)oxy)-1H-indazol-1-yl)-2-fluoro-N-(methylsulfonyl)benzamide] |
| 110 | – | CS(=O)(=O)NC(=O)c1cc(Cl)c(-n2cc(-c3ccc(Cl)cc3F)c3cc(Cl)cnc32)cc1F [Example 189, 5-chloro-4-(5-chloro-3-(4-chloro-2-fluorophenyl)-1H-pyrrolo[2,3-b]pyridin-1-yl)-2-fluoro-N-(methylsulfonyl)benzamide] |
| 100 | – | CS(=O)(=O)NC(=O)c1cc(Cl)c(-n2cc(-c3ccc(Cl)cc3)c3cc(F)cnc32)cc1F [Example 204, 5-chloro-4-(3-(4-chlorophenyl)-5-fluoro-1H-pyrrolo[2,3-b]pyridin-1-yl)-2-fluoro-N-(methylsulfonyl)benzamide] |
| 89 | – | CS(=O)(=O)NC(=O)c1cc(Cl)c(-n2nc(Cl)c3cc(-c4cccc(F)c4)ccc32)cc1F [Example 235, 5-chloro-4-(3-chloro-5-(3-fluorophenyl)-1H-indazol-1-yl)-2-fluoro-N-(methylsulfonyl)benzamide] |
| 113 | – | CS(=O)(=O)NC(=O)c1cc(Cl)c(-n2nc(Cl)c3cc(-c4ccc(C(F)(F)F)cc4)ccc32)cc1F [Example 251, 5-chloro-4-(3-chloro-5-(4-(trifluoromethyl)phenyl)-1H-indazol-1-yl)-2-fluoro-N-(methylsulfonyl)benzamide] |
| 110 | – | CS(=O)(=O)NC(=O)c1cc(Cl)c(-n2cc(-c3ccccc3F)c3cc(Cl)cnc32)cc1F [Example 191, 5-chloro-4-(5-chloro-3-(2-fluorophenyl)-1H-pyrrolo[2,3-b]pyridin-1-yl)-2-fluoro-N-(methylsulfonyl)benzamide] |
| 16 | – | CS(=O)(=O)NC(=O)c1cc(Cl)c(-n2nc(-c3ccc(Cl)cc3F)c3cc(Cl)ccc32)cc1F [Example 66, 5-chloro-4-(5-chloro-3-(4-chloro-2-fluorophenyl)-1H-indazol-1-yl)-2-fluoro-N-(methylsulfonyl)benzamide] |
| 50 | – | CS(=O)(=O)NC(=O)c1cc(Cl)c(-n2cc(-c3cccc(Cl)c3)c3cc(F)cnc32)cc1F [Example 208, 5-chloro-4-(3-(3-chlorophenyl)-5-fluoro-1H-pyrrolo[2,3-b]pyridin-1-yl)-2-fluoro-N-(methylsulfonyl)benzamide] |
| 71 | – | CS(=O)(=O)NC(=O)c1cc(Cl)c(-n2nc(Cl)c3cc(-c4ccc(F)cc4)ccc32)cc1F [Example 236, 5-chloro-4-(3-chloro-5-(4-fluorophenyl)-1H-indazol-1-yl)-2-fluoro-N-(methylsulfonyl)benzamide] |
| 60 | – | CS(=O)(=O)NC(=O)c1cc(Cl)c(-n2cc(-c3ccc(Cl)c(F)c3)c3cc(F)cnc32)cc1F [Example 210, 5-chloro-4-(3-(4-chloro-3-fluorophenyl)-5-fluoro-1H-pyrrolo[2,3-b]pyridin-1-yl)-2-fluoro-N-(methylsulfonyl)benzamide] |

— patent publication US10590078B2, “Sodium channel blockers” (Daewoong Pharmaceutical Co., Ltd., priority 2015, dated 2020)
